One assay deals with T1, CDK2/CycE (Homo sapiens, UniProt P24941).
T1 construct: purchased ProQinase GmbH (Freiburg, Germany); host or cells: insect cells (Sf9)
Kind of assay: CDK2/CycE kinase assay (TR-FRET, 2 mM ATP). Format: biochemical. To be noted: 2 mM ATP (high ATP); median; read-out: CDK2/CyclinE, 2 mM ATP (high ATP), IC50 (median). The method in brief: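 GST-tagged human CDK2 and CycE from Sf9 cells, about 10 ng/ml, pre-incubated 15 min at 22 °C with compound in Tris/HCl pH 8.0 buffer. Reaction with 2 mM ATP and 0.75 µM biotinylated peptide for 25 min at 22 °C. Phospho-RB antibody TR-FRET (665/620 nm ratio) read after 1 h; data normalised to no-inhibitor and no-enzyme controls.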

Assay [1] concerns BRCA1 mRNA expression in MDA-MB-231 cells. Kind of assay: qRT-PCR assay: BRCA1 mRNA expression in MDA-MB-231. It counts as cell-based, human. The following applies: Homo sapiens, MDA-MB-231, Inhibition of BRCA1 mRNA expression in MDA-MB-231 cells; median; read-out: RTqPCR-MDA-MB-231, IC50, BRCA1 (median). The method in brief:
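Read-out is RT-qPCR with expression normalised to the GAPDH housekeeping gene. Before RNA isolation, plated cells (200,000 per well, 24 h attachment) received test substances continuously over 24 h, and 600 ng of RNA served as cDNA template.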

For assay [2], the system named is MDA-MB-231, human breast cancer cells. As to the kind of experiment: Proliferation assay MDA-MB-231 (crystal violet, 4 days). It counts as cell-based. To be noted: Homo sapiens, MDA-MB-231, 96 h, MDA-MB-231 cells, median, read-out: Prolif-MDA MB-231, IC50-[mol/l] (median). The method in brief:
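Plated 4,000 cells/well, 10% FCS; 24 h later treated 0.01-10 µmol/L cpd (DMSO 0.1%), 4 d. Fix glutaraldehyde, stain 0.1% crystal violet pH 3.0, elute acetic acid, A595. Normalized to t0 plate/untreated; 4-param IC50.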

For `CCNc1nc(NCc2ncc(-c3ccccc3)[nH]2)n2ncc(C(C)C)c2n1` [Example 34, N^2-ethyl-N^4-[(5-phenyl-1H-imidazol-2-yl)methyl]-8-(propan-2-yl)pyrazolo[1,5-a][1,3,5]triazine-2,4-diamine], the values for the IC50 (on CDK2/CycE; in assay [1]; in assay [2]) were 6180 nM, 10 nM and 48.6 nM, respectively.
Turning to `Fc1ccc2[nH]c(CNc3nc(N4CCOCC4)nc4c(C(F)(F)F)cnn34)nc2c1F` [Example 426, N-[(4,5-difluoro-1H-benzimidazol-2-yl)methyl]-2-(morpholin-4-yl)-8-(trifluoromethyl)pyrazolo [1,5-a][1,3,5]triazin-4-amine], the IC50 came to 17300 nM at CDK2/CycE, 3.21 nM in assay [1] and 4.19 nM in assay [2].
The corresponding values for `O=C(O)C(F)(F)F.c1ccc2[nH]c(CNc3nc(N4CCOCC4)nc4c(-c5cncs5)cnn34)nc2c1` [Example 441, trifluoroacetic acid-N-[(1H-benzimidazol-2-yl)methyl]-2-(morpholin-4-yl)-8-(1,3-thiazol-5-yl)pyrazolo[1,5-a][1,3,5]triazin-4-amine (1/1)] are greater than 20000 nM, 3.39 nM and 28.5 nM.
The like results for `Cc1cnn2c(NCc3nc4c(F)c(F)ccc4[nH]3)nc(N3CC4CCC(C3)N4)nc12` [Example 400, 2-(3,8-diazabicyclo[3.2.1]octan-3-yl)-N-[(4,5-difluoro-1H-benzimidazol-2-yl)methyl]-8-methylpyrazolo[1,5-a][1,3,5]triazin-4-amine] were, in that order, greater than 20000 nM, 14 nM and 20.3 nM.
The corresponding values for `N#Cc1cccc(-c2c[nH]c(CNc3nc(N4CCOCC4)nc4c(Br)cnn34)n2)c1` [Example 42, 3-[2-({[8-bromo-2-(morpholin-4-yl)pyrazolo[1,5-a][1,3,5]triazin-4-yl]amino}methyl)-1H-imidazol-4-yl]benzonitrile] are 1030 nM, 3.4 nM and 5.74 nM.
`CCc1cnn2c(NCc3nc4ccccc4[nH]3)nc(N3CCN(C)CC3)nc12` [Example 434, N-[(1H-benzimidazol-2-yl)methyl]-8-ethyl-2-(4-methylpiperazin-1-yl)pyrazolo[1,5-a][1,3,5] triazin-4-amine]: the IC50 at CDK2/CycE was determined as 6370 nM; in assay [1] it was 10.5 nM; in assay [2], 44.7 nM.
The corresponding values for `CC(C)c1cnn2c(NCc3nnc(-c4ccccc4)[nH]3)nc(N3CCOCC3)nc12` [Example 33, 2-(morpholin-4-yl)-N-[(5-phenyl-4H-1,2,4-triazol-3-yl)methyl]-8-(propan-2-yl)pyrazolo[1,5-a][1,3,5]triazin-4-amine] are 8260 nM, 23.7 nM and 290 nM.
On to `FC(F)n1cc(-c2cnn3c(NCc4nc5ccccc5[nH]4)nc(N4CCOCC4)nc23)cn1` [Example 421, N-[(1H-benzimidazol-2-yl)methyl]-8-[1-(difluoromethyl)-1H-pyrazol-4-yl]-2-(morpholin-4-yl)pyrazolo[1,5-a][1,3,5]triazin-4-amine], for which the results for the IC50 (at CDK2/CycE; in assay [1]; in assay [2]) were greater than 20000 nM, 74.6 nM and 87.5 nM, respectively.
The like results for `Fc1ccc2[nH]c(CNc3nc(N4CCN5CCC4CC5)nc4c(C(F)(F)F)cnn34)nc2c1F` [Example 407, 2-(1,4-diazabicyclo[3.2.2]nonan-4-yl)-N-[(4,5-difluoro-1H-benzimidazol-2-yl)methyl]-8-(trifluoromethyl)pyrazolo[1,5-a][1,3,5]triazin-4-amine] were, in that order, greater than 20000 nM, 1.6 nM and 2.28 nM.
The like results for `FC(F)Cc1cnn2c(NCc3nc4ccccc4[nH]3)nc(N3CCOCC3)nc12.O=C(O)C(F)(F)F` [Example 444, trifluoroacetic acid N-[(1H-benzimidazol-2-yl)methyl]-8-(2,2-difluoroethyl)-2-(morpholin-4-yl)pyrazolo[1,5-a][1,3,5]triazin-4-amine] were, in that order, 15400 nM, 51.5 nM and 69.1 nM.
The corresponding values for `CCc1cnn2c(NCc3nc4c(OC)cccc4[nH]3)nc(N3CCOCC3)nc12` [Example 433, 8-ethyl-N-[(4-methoxy-1H-benzimidazol-2-yl)methyl]-2-(morpholin-4-yl)pyrazolo[1,5-a][1,3,5]triazin-4-amine] are 1780 nM, 10.6 nM and 40.3 nM.
In the case of `Cc1cnn2c(NCc3nc4c(F)c(F)ccc4[nH]3)nc(N3CCOCC3)nc12` [Example 392, N-[(4,5-difluoro-1H-benzimidazol-2-yl)methyl]-8-methyl-2-(morpholin-4-yl)pyrazolo[1,5-a][1,3,5]triazin-4-amine], the values for the IC50 (on CDK2/CycE; in assay [1]; in assay [2]) were greater than 20000 nM, 2.55 nM and 11.1 nM, respectively.

For the origin of these results see patent US20230117034A1, “PYRAZOLOTRIAZINES” (Bayer Aktiengesellschaft, priority 2019, published 2023).
